Measured values reported in patent US10201547B2, “Method of treatment of aggression” (Supernus Pharmaceuticals, Inc., priority 2008, dated 2019).

What was measured:
[1] = target: T1, D2S(h) (Homo sapiens, UniProt P14416); assay: D2S(h) displacement (radioligand binding) assay, [3H]spiperone
[2] = target: T2, D4.4 (Homo sapiens, UniProt P21917); assay: D4.4 displacement assay; assay type: binding; details: concentration 1.0E−05M
T2 sequence (P21917 1-419): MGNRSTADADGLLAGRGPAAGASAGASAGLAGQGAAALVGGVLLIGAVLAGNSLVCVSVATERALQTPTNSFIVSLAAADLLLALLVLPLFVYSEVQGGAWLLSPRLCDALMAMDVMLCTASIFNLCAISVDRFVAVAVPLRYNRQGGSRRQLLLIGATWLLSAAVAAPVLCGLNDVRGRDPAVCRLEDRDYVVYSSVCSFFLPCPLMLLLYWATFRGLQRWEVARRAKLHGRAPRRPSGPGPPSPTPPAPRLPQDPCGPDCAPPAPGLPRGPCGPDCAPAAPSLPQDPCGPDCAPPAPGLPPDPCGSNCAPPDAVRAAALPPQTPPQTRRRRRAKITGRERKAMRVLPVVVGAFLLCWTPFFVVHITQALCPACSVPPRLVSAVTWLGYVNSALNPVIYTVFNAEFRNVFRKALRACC

[3] = target: T3, human D5 receptor (Homo sapiens, UniProt P21918); assay: D5(h) displacement (radioligand binding) assay, [3H]SCH 23390, recombinant D5 receptors in GH4 cell line
T3 construct: expressed in transfected cells; host or cells: GH4 cell line
T3 sequence (P21918 whole entry): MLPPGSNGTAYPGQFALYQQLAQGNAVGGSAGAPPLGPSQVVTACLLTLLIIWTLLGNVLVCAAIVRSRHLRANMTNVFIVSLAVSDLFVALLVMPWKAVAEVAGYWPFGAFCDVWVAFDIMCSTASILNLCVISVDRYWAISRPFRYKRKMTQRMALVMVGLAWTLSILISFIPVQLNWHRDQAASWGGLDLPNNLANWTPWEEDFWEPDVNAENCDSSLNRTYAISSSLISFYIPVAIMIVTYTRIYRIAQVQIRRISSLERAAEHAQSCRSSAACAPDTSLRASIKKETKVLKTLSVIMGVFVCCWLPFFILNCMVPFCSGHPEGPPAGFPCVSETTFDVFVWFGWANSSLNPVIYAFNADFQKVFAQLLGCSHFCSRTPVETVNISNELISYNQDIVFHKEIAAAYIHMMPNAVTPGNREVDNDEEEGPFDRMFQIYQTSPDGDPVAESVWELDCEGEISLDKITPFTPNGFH
Description: A heterologous competition assay was designed for a receptor affinity screening of molindone. Recombinant D5 receptors were expressed in a GH4 cell line and specific binding was characterized by displacement of another molecule with affinity for the D5 receptor (the “ligand”). “Specific binding” refers here to the difference in the binding of the ligand to the receptors in the presence and absence of an excess of the active agent. An initial screen was performed with […] molindone.
The affinity of molindone for the D5 receptor was further characterized by determining the IC50, or concentration that inhibits 50% of control specific binding. For this experiment, a range of molindone concentrations was selected for the ligand blocking assay. The IC50 was determined using non-linear regression analysis of the competition curves using Hill equation curve fitting. The inhibition constants Ki, wherein Ki is defined as the concentration of the competing ligand (molindone) that will bind to half the binding sites at equilibrium in the absence of radioligand or other competitors, were calculated using Cheng Prusoff equation.

[4] = target: T1, D2S(h); assay: D2S(h) antagonist effect, cAMP HTRF; assay type: cell-based
[5] = target: T3, human D5 receptor; assay: D5(h) antagonist effect, cAMP HTRF; assay type: cell-based; details: for Agonist Response % of Control, 1st / Agonist Response % of Control, 2nd / Agonist Response % of Control, Mean: antagonist effect
Source text: (§1) The final step of the assay was to characterize whether the binding is of an agonist or antagonist nature. For the D5 receptor, this was accomplished through an assay that examined the agonist effect on the D5 receptor, i.e., the generation of cAMP or the blockade of this effect when stimulated by a D5 agonist, dopamine. This was also done with a range of concentrations to determine the relative agonist vs antagonist binding Ki. The EC50 values (concentration producing a half-maximal specific response) and IC50 values (a concentration causing a half-maximal inhibition of the control-specific agonist response) were determined by non-linear regression analysis of the concentration-response curves generated with mean replicate values using Hill equation curve fitting. The apparent dissociation constants for antagonists Kb were calculated using the modified Cheng Prusoff equation.

[6] = target: T3, human D5 receptor; assay: D5(h) agonist effect, cAMP HTRF; assay type: cell-based; details: control 10 μM dopamine
Source text: as §1

[7] = Randomized, multicenter, parallel group dose-ranging study in children with ADHD and persistent serious conduct problems; assay type: in vivo, human; set-up: NCBRF-TIQ Conduct Problem Subscale Score, Visit 12 Mean / Mean Reduction from Baseline in NCBRF-TIQ Conduct Problem Subscale Score: scale not given here; details: for NCBRF-TIQ Conduct Problem Subscale Score, Visit 12 Mean: 6 weeks at target dose
Description: Effectiveness, safety and tolerability of molindone was evaluated in a randomized, multicenter, parallel group dose-ranging study in children with ADHD and persistent serious conduct problems. Subjects were randomized based on weight at baseline to 1 of 4 treatment groups. The dosing for subjects with weight of less than 30 kg was initiated at 1.67 mg/day and 3.34 mg/day for subjects weighing 30 kg or more. A titration schedule was followed until the target dose (Treatment group 1, 2, 3 or 4) was reached. Subjects remained at target dose for 6 weeks (Table 9). [table]

[8] = D5(h), test concentration 1.0E−04 M, dopamine 100 nM
[9] = D5(h), test concentration 1.0E−05 M, dopamine 100 nM
[10] = D5(h), test concentration 1.0E−06 M, dopamine 100 nM
[11] = D5(h), test concentration 1.0E−07 M, dopamine 100 nM
[12] = D5(h), test concentration 2.0E−05 M, dopamine 100 nM
[13] = D5(h), test concentration 3.0E−06 M, dopamine 100 nM
[14] = D5(h), test concentration 3.0E−07 M, dopamine 100 nM
[15] = D5(h), test concentration 5.0E−05 M, dopamine 100 nM

T1 sequence (P14416 1-414 isoform P14416-2): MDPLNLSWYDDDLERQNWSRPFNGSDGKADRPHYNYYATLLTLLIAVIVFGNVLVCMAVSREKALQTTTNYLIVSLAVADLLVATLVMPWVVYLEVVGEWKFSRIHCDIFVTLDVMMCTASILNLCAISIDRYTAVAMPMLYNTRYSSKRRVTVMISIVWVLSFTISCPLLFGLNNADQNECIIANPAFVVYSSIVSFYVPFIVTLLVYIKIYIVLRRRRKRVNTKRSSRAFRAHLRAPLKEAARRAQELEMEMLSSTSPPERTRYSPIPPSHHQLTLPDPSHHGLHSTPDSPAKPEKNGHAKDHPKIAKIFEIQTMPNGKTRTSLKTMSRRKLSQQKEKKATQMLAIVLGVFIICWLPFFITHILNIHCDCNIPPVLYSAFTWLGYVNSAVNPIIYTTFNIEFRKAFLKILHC

Ki ([1]; D2s binding, Cheng Prusoff, read-out: K1): 17 nM
n(H) ([1]; D2s binding, Hill equation curve fitting): 1.7
% Inhibition of control specific binding ([1]; D2s, concentration 1.0E−05M): 98%
% Inhibition of control specific binding [2]: 38%
IC50 ([3]; D5 binding): 5200 nM
n(H) ([3]; D5 binding, Hill equation curve fitting): 1.2
Ki ([3]; D5 receptor): 2400 nM
inhibition at 10 pM ([3]; molindone 10^−5 μM, read-out: inhibition of the SCH23390 binding at the D5 receptor): 59%
IC50 ([4]; dopamine 30 nM): 68 nM
Kb ([4]; modified Cheng Prusoff): 4.7 nM
IC50 ([5]; D5(h), dopamine 100 nM): 5300 nM
Kb ([5]; D5(h), modified Cheng Prusoff): 920 nM
nature of the binding/activity at the D5 receptor (agonist or antagonist) ([5]; D5 receptor, cAMP): specific antagonist activity
Agonist Response % of Control, 1st [5, 8]: 7%
Agonist Response % of Control, 2nd [5, 8]: 4%
Agonist Response % of Control, Mean [5, 8]: 5.6%
Agonist Response % of Control, 1st [5, 9]: 40%
Agonist Response % of Control, 2nd [5, 9]: 36%
Agonist Response % of Control, Mean [5, 9]: 38.4%
Agonist Response % of Control, 1st [5, 10]: 98%
Agonist Response % of Control, 2nd [5, 10]: 95%
Agonist Response % of Control, Mean [5, 10]: 96.4%
Agonist Response % of Control, 1st [5, 11]: 107%
Agonist Response % of Control, 2nd [5, 11]: 115%
Agonist Response % of Control, Mean [5, 11]: 111.0%
Agonist Response % of Control, 1st [5, 12]: 19%
Agonist Response % of Control, 2nd [5, 12]: 20%
Agonist Response % of Control, Mean [5, 12]: 19.6%
Agonist Response % of Control, 1st [5, 13]: 67%
Agonist Response % of Control, 2nd [5, 13]: 66%
Agonist Response % of Control, Mean [5, 13]: 66.7%
Agonist Response % of Control, 1st [5, 14]: 90%
Agonist Response % of Control, 2nd [5, 14]: 95%
Agonist Response % of Control, Mean [5, 14]: 92.9%
Agonist Response % of Control, 1st [5, 15]: 4%
Agonist Response % of Control, 2nd [5, 15]: 11%
Agonist Response % of Control, Mean [5, 15]: 7.3%
Agonist Response % of Control, 1st ([6]; test concentration 1.0E−04 M): 1%
Agonist Response % of Control, 2nd ([6]; test concentration 1.0E−04 M): 4%
Agonist Response % of Control, Mean ([6]; test concentration 1.0E−04 M): 2.1%
Agonist Response % of Control, 1st ([6]; test concentration 1.0E−05 M): −1%
Agonist Response % of Control, 2nd ([6]; test concentration 1.0E−05 M): 2%
Agonist Response % of Control, Mean ([6]; test concentration 1.0E−05 M): 0.6%
Agonist Response % of Control, 1st ([6]; test concentration 1.0E−06 M): 0%
Agonist Response % of Control, 2nd ([6]; test concentration 1.0E−06 M): 0%
Agonist Response % of Control, Mean ([6]; test concentration 1.0E−06 M): 0.1%
Agonist Response % of Control, 1st ([6]; test concentration 1.0E−07 M): 2%
Agonist Response % of Control, 2nd ([6]; test concentration 1.0E−07 M): 2%
Agonist Response % of Control, Mean ([6]; test concentration 1.0E−07 M): 2.1%
Agonist Response % of Control, 1st ([6]; test concentration 2.0E−05 M): −2%
Agonist Response % of Control, 2nd ([6]; test concentration 2.0E−05 M): 2%
Agonist Response % of Control, Mean ([6]; test concentration 2.0E−05 M): 0.2%
Agonist Response % of Control, 1st ([6]; test concentration 3.0E−06 M): 3%
Agonist Response % of Control, 2nd ([6]; test concentration 3.0E−06 M): 4%
Agonist Response % of Control, Mean ([6]; test concentration 3.0E−06 M): 3.3%
Agonist Response % of Control, 1st ([6]; test concentration 3.0E−07 M): 4%
Agonist Response % of Control, 2nd ([6]; test concentration 3.0E−07 M): −1%
Agonist Response % of Control, Mean ([6]; test concentration 3.0E−07 M): 1.8%
Agonist Response % of Control, 1st ([6]; test concentration 5.0E−05 M): 1%
Agonist Response % of Control, 2nd ([6]; test concentration 5.0E−05 M): −2%
Agonist Response % of Control, Mean ([6]; test concentration 5.0E−05 M): −0.7%
SMILES: CCc1c(C)[nH]c2c1C(=O)C(CN1CCOCC1)CC2 (stereo not drawn) [molindone]
NCBRF-TIQ Conduct Problem Subscale Score, Visit 12 Mean ([7]; Treatment 1: 5 mg/day (<30 kg), 10 mg/day (≥30 kg)): 13.40
Mean Reduction from Baseline in NCBRF-TIQ Conduct Problem Subscale Score ([7]; Treatment 1: 5 mg/day (<30 kg), 10 mg/day (≥30 kg), baseline mean 20.35): 6.95
NCBRF-TIQ Conduct Problem Subscale Score, Visit 12 Mean ([7]; Treatment 2: 10 mg/day (<30 kg), 20 mg/day (≥30 kg)): 17.00
Mean Reduction from Baseline in NCBRF-TIQ Conduct Problem Subscale Score ([7]; Treatment 2: 10 mg/day (<30 kg), 20 mg/day (≥30 kg), baseline mean 25.74): 8.74
NCBRF-TIQ Conduct Problem Subscale Score, Visit 12 Mean ([7]; Treatment 3: 15 mg/day (<30 kg), 30 mg/day (≥30 kg)): 17.79
Mean Reduction from Baseline in NCBRF-TIQ Conduct Problem Subscale Score ([7]; Treatment 3: 15 mg/day (<30 kg), 30 mg/day (≥30 kg), baseline mean 26.00): 8.21
NCBRF-TIQ Conduct Problem Subscale Score, Visit 12 Mean ([7]; Treatment 4: 20 mg/day (<30 kg), 40 mg/day (≥30 kg)): 11.65
Mean Reduction from Baseline in NCBRF-TIQ Conduct Problem Subscale Score ([7]; Treatment 4: 20 mg/day (<30 kg), 40 mg/day (≥30 kg), baseline mean 25.95): 14.30
Side effects ([7]; all four treatment groups): mild, self-limiting and within the limits of tolerability
discontinuation because of side effects ([7]; all four treatment groups): no subjects discontinued the study because of the side effects
efficacy signal towards reducing Conduct Problem Subscale scores ([7]; children with ADHD and persistent serious conduct problems): statistically significant efficacy signal
